Assays:
HeLa cells [1] = type: cell-based, Human; details: for cytotoxicity: concentrations at least up to 10 µM
Protocol: (§1) Human cervix carcinoma cells, HeLa cells (#ACC57, DMSZ, Germany), were cultured in DMEM medium (Invitrogen) supplemented with 10% fetal calf serum (FCS, Gibco) in a humidified incubator at 37°C/5%CO2.
In order to evaluate the bioactivity of the caged PCT derivatives, their cytotoxicity was tested in vitro using HeLa cells. Cells were incubated with PTX and caged PTX derivatives at concentrations between 0.01 and 10 µM.
The effect of PTX and derivatives on cell vitality was measured in a combined assay determining cytotoxicity and cell number by propidium iodide (PI) staining. HeLa cells (2x10^4 cells/well) were diluted in cell culture medium (DMEM, 10 % FCS) and seeded in 96 well-plates (black plate, clear bottom, corning, Amsterdam, Netherlands). The culture medium was replaced after ~16h by compound supplemented medium (200 µL, DMEM, 10 % FCS, 1 % DMSO) or medium without compound (DMEM, 10 % FCS, 1 % DMSO) as a specific control. After 48 h, dead cells with permeable cell membranes were stained with PI ([…], 15 min at 37°C, 5% CO2) and the PI fluorescence intensity was measured with a fluorescence plate reader (excitation wavelength 530 nm, emission wavelength 620 nm, Tecan Infinite M1000, Austria). Subsequently, the cells were lysed with 2% Triton X-100 diluted in DMEM (0.3% Triton X-100 per well, 15 min at 37°C, 5% CO2 and the PI fluorescence was measured again. The vitality of the cells was calculated by the ratio of dead cells (DC) before lyses and the total cell number (TCN) after lyses (1-DC/TCN).

[2] = Solubility test of 10 µM solutions in 1:1000 DMSO:PIPES buffer; type: physicochemical
Protocol: 10 mM solutions of PTX derivatives in DMSO were prepared. All substances were soluble in DMSO at this concentration. 10 µM solutions of were obtained by 1:1000 dilution of the stock solution into 80 mM PIPES buffer pH 6.8, containing 2 mM MgCl2 and 1 mM EGTA. Table A: solubility test of 10 µM solutions of PTX derivatives in 1:1000 DMSO:PIPES buffer

HeLa cells [3] = test: Live cell imaging of the microtubule network (Tubulin Tracker / DRAQ5, CLSM); type: cell-based, Human; details: for microtubule staining by Tubulin Tracker (fluorescence CLSM) / cell morphology / mitosis in microscopy images: 10 µM; for microtubule staining by Tubulin Tracker (fluorescence CLSM) / inhibition of PTX bioactivity / binding of PTX to β-tubulin by the cage / cell morphology / mitosis in microscopy images / concentrations at which the derivative bound to tubulin / concentration triggering the multiple nuclei pattern: 24 h; for inhibition of PTX bioactivity / binding of PTX to β-tubulin by the cage: concentrations up to 10 µM
Protocol: as §1
In order to visualize the influence of the PTX derivatives in the microtubule network of the cell, a live cell microscopy analysis of HeLa cells after incubation with 10 µM PTX derivatives for 24 hours was performed.
Specifically, microtubules and nuclei of HeLa cells were fluorescently stained with Tubulin Tracker (Invitrogen) and DRAQ5 (biostatus, United Kingdom) respectively, and imaged by a Leica TCS SP5 confocal laser scanning microscopy (CLSM). 30x10^4 HeLa cells were seeded in 8-well chamber slides (Lab-Tek, nunc, Germany) and the culture medium was replaced after ~16 h by compound supplemented medium (250 µL, DMEM, 10% FCS, 1% DMSO) or medium without compound (DMEM, 10% FCS, 1% DMSO) as a specific control. After 24h, cells were carefully washed with Hank's Buffered Saline Solution (HBSS, with Ca^2+ and Mg^2+, Invitrogen) and the buffer was replaced by a staining solution containing 250 nM Tubulin Tracker (Invitrogen) and 5 µM DRAQ5. The cells were stained for 30 min at 37°C/5% CO2 in a humidified incubator. The staining solution was replaced by HBSS and the cells were directly imaged with a 100x plan apochromat (1.4 NA) oil immersion objective on the CLSM system equipped with a CO2 incubator and a temperature control. Tubulin Tracker was excited with an argon laser (488 nm) and the emission was detected by 500-580 nm. DRAQ5 was excited with a HeNe laser (633 nm) and the emission was detected by 650-730 nm. The images have a voxel height and width of 90 nm. Bright field images grabbed with an Olympus IX-70 inverted microscope with a 20x phase contrast objective. Image processing performed with Leica LAS AF lite and ImageJ (Fiji).

[4] = Photocleavage study: irradiation at 360 nm, composition by HPLC; type: physicochemical; details: 1 mM, 5% water in acetonitril, share of the labelled species
Protocol: The photolysis of the compounds 2'-Nvoc-PTX and 2',7-bisNvoc-PTX was followed by UV and HPLC analysis of the correspondent solutions after exposure to light at λmax = 360 nm (2.7 mW/cm^2).
3 ml of a 1 mM solution of caged PTX in acetonitrile containing 5% water was placed into a quartz cuvette and was exposed at 360 nm for different irradiation times. Aliquots of 50 µl were taken after various irradiation times, and each aliquot was splitted in two parts. 20 µl were diluted to 400 µl to obtain 50 µM solution for UV-Vis characterisation. The 30 µl left from each aliquot were injected into the HPLC (20 µl loop, analytical column) in order to estimate the composition of the irradiated mixture.
Photocleavage of compound 2',7-bisNvoc-PTX was expected to yield the mono-substituted species 2'-Nvoc-PTX and 7-Nvoc-PTX as intermediates that can be further photolyzed to afford free PTX. In fact, HPLC analysis (Fig. 1) confirmed the presence of 2'-Nvoc-PTX (retention time, r.t.= 16.7 min) and 7-Nvoc-PTX (r.t. = 18.2 min) together with the starting compound 2',7-bisNvoc-PTX (r.t. = 21.3 min) and the fully deprotected PTX (r.t. = 11.1 min). The ratio of these compounds within the composition of the irradiated mixture changes with the exposure dose. Fig. 2 and Table B below show the compositional evolution of the mixture with increasing irradiation time as obtained by HPLC analysis. […] However, the influence of other structural factors in the photolytic mechanism cannot be ruled out. Compound 7-Nvoc-PTX could also be isolated from the irradiated mixture in milligram scale. Table B. Molar composition of a solution of 2',7-bisNvoc-PTX (1 mM, 5% water in acetonitril) after different irradiation times, as determined by analysis of HPLC graphs (Fig. 2)

[5] = 10 µM in 1:1000 DMSO:PIPES buffer (80 mM, pH 6.8), time 1 hr
[6] = 10 µM in 1:1000 DMSO:PIPES buffer (80 mM, pH 6.8), time 8 hrs
[7] = 10 µM in 1:1000 DMSO:PIPES buffer (80 mM, pH 6.8), time 24 hrs
[8] = 10 µM in 1:1000 DMSO:PIPES buffer (80 mM, pH 6.8), time 30 hrs
[9] = 10 µM in 1:1000 DMSO:PIPES buffer (80 mM, pH 6.8, 2 mM MgCl2, 1 mM EGTA), time 5 min
[10] = 360 nm (2.7 mW/cm^2), irradiation time 0 min
[11] = 360 nm, irradiation time 60 min
[12] = 360 nm, irradiation time 270 min
[13] = 360 nm, irradiation time 450 min
[14] = 360 nm, irradiation time 570 min
[15] = 360 nm, irradiation time 735 min
[16] = 360 nm, irradiation time 820 min
[17] = 360 nm, irradiation time 1585 min

Compound	cytotoxicity (HeLa cells [1]; 48 h)	solubility test (appearance of solution) [2, 5]	solubility test (appearance of solution) [2, 6]	solubility test (appearance of solution) [2, 7]	solubility test (appearance of solution) [2, 8]	solubility test (appearance of solution) [2, 9]	microtubule staining by Tubulin Tracker (fluorescence CLSM) (HeLa cells [3])	inhibition of PTX bioactivity / binding of PTX to β-tubulin by the cage (HeLa cells [3])	Molar composition of a solution of 2',7-bisNvoc-PTX after irradiation [4, 10] [%]	Molar composition of a solution of 2',7-bisNvoc-PTX after irradiation [4, 11] [%]	Molar composition of a solution of 2',7-bisNvoc-PTX after irradiation [4, 12] [%]	Molar composition of a solution of 2',7-bisNvoc-PTX after irradiation [4, 13] [%]	Molar composition of a solution of 2',7-bisNvoc-PTX after irradiation [4, 14] [%]	Molar composition of a solution of 2',7-bisNvoc-PTX after irradiation [4, 15] [%]	Molar composition of a solution of 2',7-bisNvoc-PTX after irradiation [4, 16] [%]	Molar composition of a solution of 2',7-bisNvoc-PTX after irradiation [4, 17] [%]	cell morphology / mitosis in microscopy images (HeLa cells [3])	concentrations at which the derivative bound to tubulin (HeLa cells [3]) [nM]	further results
COc1cc(COC(=O)O[C@H]2C[C@H]3OC[C@@]3(OC(C)=O)[C@H]3[C@H](OC(=O)c4ccccc4)[C@]4(O)C[C@H](OC(=O)[C@H](OC(=O)OCc5cc(OC)c(OC)cc5[N+](=O)[O-])[C@@H](NC(=O)c5ccccc5)c5ccccc5)C(C)=C([C@@H](OC(C)=O)C(=O)[C@]23C)C4(C)C)c([N+](=O)[O-])cc1OC [2',7-bisNvoc-PTX]	did not show any cytotoxicity	clear solution	clear solution	clear solution	turbid solution	clear solution	evenly stained by Tubulin Tracker and showed similar patterns than the negative control	effectively inhibited binding of PTX to β-tubulin	100	90.5	72.3	51.1	42.2	27.5	24.3	6.1			vitality of cells after incubation with irradiated solutions (HeLa cells [1]; irradiated solutions of 2',7-bisNvoc-PTX, longer irradiation times): 0.5; cytotoxic effects of irradiated solutions (HeLa cells [1]; irradiated solutions of 2',7-bisNvoc-PTX, shortest irradiation time): Cytotoxic effects were visible already at the shortest irradiation time
COc1cc(COC(=O)O[C@@H](C(=O)O[C@H]2C[C@@]3(O)[C@@H](OC(=O)c4ccccc4)[C@@H]4[C@]5(OC(C)=O)CO[C@@H]5C[C@H](O)[C@@]4(C)C(=O)[C@H](OC(C)=O)C(=C2C)C3(C)C)[C@@H](NC(=O)c2ccccc2)c2ccccc2)c([N+](=O)[O-])cc1OC [2'-Nvoc-PTX]		clear solution	clear solution	turbid solution	Suspension	clear solution		not able to completely inhibit PTX bioactivity	0	6.3	17.4	27.6	32.3	35.6	38.1	25.6	showed similar results to free PTX	> 10	reduction in vitality (HeLa cells [1]; 48 h, at 0.5 µM): ~ 25%; concentration range over which the derivative can be regarded as caged PTX (HeLa cells [1]; vitality results): < 0.1 µM; concentration triggering the multiple nuclei pattern (HeLa cells [3]; patterns similar between the compounds (Fig. 6)): 0.05 µM
COc1cc(COC(=O)O[C@H]2C[C@H]3OC[C@@]3(OC(C)=O)[C@H]3[C@H](OC(=O)c4ccccc4)[C@]4(O)C[C@H](OC(=O)[C@H](O)[C@@H](NC(=O)c5ccccc5)c5ccccc5)C(C)=C([C@@H](OC(C)=O)C(=O)[C@]23C)C4(C)C)c([N+](=O)[O-])cc1OC [7-Nvoc-PTX]	did not show any cytotoxicity						microtubules were less stained, tripolar spindles appeared and the cells developed multiple nuclei with different sizes	not able to completely inhibit PTX bioactivity	0	3.2	8.6	15.3	14.9	18.4	16.4	7.8	formed an adherent monolayer similar to the negative control	> 1000	concentration triggering the multiple nuclei pattern (HeLa cells [3]; pattern similar to 2 nM PTX (Fig. 6)): 10 µM; prevention of mitotic blocking relative to 2'-Nvoc-PTX (HeLa cells [3]; at the concentration tested (10 µM)): ~ 200 fold

From EP2565188A1, “Novel photoactivatable paclitaxel derivatives and uses thereof, in particular in cellbiology and cancer treatment” (Max-Planck-Gesellschaft zur Förderung der Wissenschaften …, priority 2011, dated 2013)
